PubChem BioAssay (NCI)
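Interpolation was linear, between the two tested concentrations surrounding the appropriate level; five concentrations were tested over 48 hours in 96-well plates. TGI: concentration producing complete growth inhibition.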

Columns and labels:
Assay in all cases: inhibition of tumour cell growth, NCI panel, 48 h
[1] = test system: CAKI-1 renal
[2] = test system: ACHN renal
[3] = test system: 786-0 renal
[4] = test system: SN12C renal
[5] = test system: NCI/ADR-RES ovarian
[6] = test system: NCI-H226 lung
[7] = test system: SK-MEL-28 melanoma
[8] = test system: NCI-H522 lung
[9] = test system: U251 CNS
[10] = test system: MALME-3M melanoma
[11] = test system: NCI-H23 lung
[12] = test system: COLO 205 colon
[13] = test system: MDA-MB-435
[14] = test system: HL-60(TB) leukemia
[15] = test system: HT29 colon
[16] = test system: UACC-62 melanoma
[17] = test system: SNB-19 CNS
[18] = test system: HOP-92 NSCLC
[19] = test system: BT-549 breast
[20] = test system: TK-10 renal
[21] = test system: SNB-75 CNS
[22] = test system: A549 NSCLC
[23] = test system: UO-31 renal
[24] = test system: OVCAR-4 ovarian
[25] = test system: SW-620 colon
[26] = test system: HCT-15 colon
[27] = test system: T-47D breast
[28] = test system: KM12 colon
[29] = test system: SF-268 CNS
[30] = test system: OVCAR-5 ovarian
[31] = test system: MDA-MB-231 breast
[32] = test system: HCT-116 colon
[33] = test system: M14 melanoma
[34] = test system: PC-3 prostate
[35] = test system: HCC-2998 colon
[36] = test system: SK-MEL-5 melanoma
[37] = test system: NCI-H460 lung
[38] = test system: OVCAR-8 ovarian
[39] = test system: MDA-N
[40] = test system: HOP-62 NSCLC
[41] = test system: DU-145 prostate
[42] = test system: SF-295 CNS
[43] = test system: IGROV1 ovarian
[44] = test system: SK-MEL-2 melanoma
[45] = test system: RPMI-8226 leukemia
[46] = test system: K-562 leukemia
[47] = test system: OVCAR-3 ovarian
[48] = test system: UACC-257 melanoma
[49] = test system: MCF7 breast
[50] = test system: SF-539 CNS
[51] = test system: RXF 393 renal
[52] = test system: HS 578T breast
[53] = test system: A498 renal
[54] = test system: EKVX NSCLC
[55] = test system: SK-OV-3 ovarian
[56] = test system: MOLT-4 leukemia
[57] = test system: CCRF-CEM leukemia
[58] = test system: LOX IMVI melanoma

## CN(C)CCC(C#N)(c1ccccc1)c1ccccc1
[1]
  TGI: > 100 µM
[2]
  TGI: > 100 µM
[3]
  TGI: > 100 µM
[4]
  TGI: > 100 µM
[5]
  TGI: > 100 µM
[6]
  TGI: > 100 µM
[7]
  TGI: 58.4 µM
[8]
  TGI: > 100 µM
[9]
  TGI: > 100 µM
[10]
  TGI: > 100 µM
[11]
  TGI: > 100 µM
[12]
  TGI: > 100 µM
[13]
  TGI: > 100 µM
[14]
  TGI: 65.3 µM
[15]
  TGI: > 100 µM
[16]
  TGI: > 100 µM
[17]
  TGI: > 100 µM
[18]
  TGI: 66.6 µM
[19]
  TGI: > 100 µM
[20]
  TGI: > 100 µM
[21]
  TGI: > 100 µM
[22]
  TGI: > 100 µM
[23]
  TGI: > 100 µM
[24]
  TGI: > 100 µM
[25]
  TGI: > 100 µM
[26]
  TGI: > 100 µM
[27]
  TGI: > 100 µM
[28]
  TGI: > 100 µM
[29]
  TGI: > 100 µM
[30]
  TGI: > 100 µM
[31]
  TGI: > 100 µM
[32]
  TGI: > 100 µM
[33]
  TGI: 50 µM
[34]
  TGI: > 100 µM
[35]
  TGI: 34.1 µM
[36]
  TGI: 51.1 µM
[37]
  TGI: > 100 µM
[38]
  TGI: > 100 µM
[39]
  TGI: > 100 µM
[40]
  TGI: > 100 µM
[41]
  TGI: > 100 µM
[42]
  TGI: > 100 µM
[43]
  TGI: > 100 µM
[44]
  TGI: > 100 µM
[45]
  TGI: 80.5 µM
[46]
  TGI: 22.6 µM
[47]
  TGI: > 100 µM
[48]
  TGI: 59.2 µM
[49]
  TGI: > 100 µM
[50]
  TGI: > 100 µM
[51]
  TGI: > 100 µM
[52]
  TGI: > 100 µM
[53]
  TGI: > 100 µM
[54]
  TGI: > 100 µM
[55]
  TGI: > 100 µM

## CC(C)c1cc(C(C)C)c(S(=O)(=O)N/N=C2\CC3CCC2(C)C3(C)C)c(C(C)C)c1 (stereo not given)
[1]
  TGI: > 100 µM
[2]
  TGI: > 100 µM
[3]
  TGI: > 100 µM
[4]
  TGI: 38.2 µM
[5]
  TGI: > 100 µM
[6]
  TGI: 80 µM
[7]
  TGI: > 100 µM
[8]
  TGI: 36.8 µM
[9]
  TGI: > 100 µM
[10]
  TGI: > 100 µM
[56]
  TGI: 40 µM
[11]
  TGI: > 100 µM
[12]
  TGI: 79.3 µM
[13]
  TGI: > 100 µM
[15]
  TGI: 43.8 µM
[16]
  TGI: > 100 µM
[17]
  TGI: > 100 µM
[19]
  TGI: > 100 µM
[20]
  TGI: > 100 µM
[22]
  TGI: > 100 µM
[23]
  TGI: > 100 µM
[24]
  TGI: > 100 µM
[25]
  TGI: > 100 µM
[26]
  TGI: > 100 µM
[27]
  TGI: 68 µM
[28]
  TGI: > 100 µM
[29]
  TGI: > 100 µM
[30]
  TGI: > 100 µM
[31]
  TGI: > 100 µM
[32]
  TGI: > 100 µM
[33]
  TGI: > 100 µM
[34]
  TGI: > 100 µM
[35]
  TGI: > 100 µM
[36]
  TGI: 30.5 µM
[57]
  TGI: 22.8 µM
[38]
  TGI: > 100 µM
[39]
  TGI: 64.8 µM
[40]
  TGI: > 100 µM
[41]
  TGI: > 100 µM
[42]
  TGI: 63.9 µM
[43]
  TGI: > 100 µM
[44]
  TGI: > 100 µM
[45]
  TGI: 21.2 µM
[46]
  TGI: > 100 µM
[47]
  TGI: > 100 µM
[48]
  TGI: 26.2 µM
[49]
  TGI: 30.7 µM
[51]
  TGI: 58.5 µM
[52]
  TGI: > 100 µM
[53]
  TGI: 32.7 µM
[54]
  TGI: 71.5 µM
[55]
  TGI: > 100 µM

## CC(=O)O[C@@H]1[C@H]2O[C@H]2[C@H]2O[C@@]2(COC(=O)c2ccccc2)[C@H]1OC(C)=O
[1]
  TGI: > 100 µM
[2]
  TGI: > 100 µM
[3]
  TGI: > 100 µM
[4]
  TGI: > 100 µM
[5]
  TGI: > 100 µM
[6]
  TGI: > 100 µM
[7]
  TGI: > 100 µM
[8]
  TGI: > 100 µM
[9]
  TGI: > 100 µM
[10]
  TGI: > 100 µM
[56]
  TGI: > 100 µM
[11]
  TGI: > 100 µM
[12]
  TGI: > 100 µM
[13]
  TGI: > 100 µM
[14]
  TGI: > 100 µM
[15]
  TGI: > 100 µM
[16]
  TGI: > 100 µM
[17]
  TGI: > 100 µM
[18]
  TGI: > 100 µM
[19]
  TGI: > 100 µM
[20]
  TGI: > 100 µM
[21]
  TGI: > 100 µM
[22]
  TGI: > 100 µM
[23]
  TGI: > 100 µM
[24]
  TGI: > 100 µM
[25]
  TGI: > 100 µM
[26]
  TGI: > 100 µM
[27]
  TGI: > 100 µM
[28]
  TGI: > 100 µM
[58]
  TGI: > 100 µM
[29]
  TGI: > 100 µM
[30]
  TGI: > 100 µM
[31]
  TGI: > 100 µM
[32]
  TGI: > 100 µM
[33]
  TGI: > 100 µM
[34]
  TGI: > 100 µM
[35]
  TGI: > 100 µM
[36]
  TGI: > 100 µM
[37]
  TGI: > 100 µM
[57]
  TGI: > 100 µM
[38]
  TGI: > 100 µM
[39]
  TGI: > 100 µM
[41]
  TGI: > 100 µM
[42]
  TGI: > 100 µM
[43]
  TGI: > 100 µM
[44]
  TGI: > 100 µM
[45]
  TGI: > 100 µM
[46]
  TGI: > 100 µM
[47]
  TGI: > 100 µM
[48]
  TGI: > 100 µM
[49]
  TGI: > 100 µM
[50]
  TGI: > 100 µM
[52]
  TGI: > 100 µM
[53]
  TGI: > 100 µM
[54]
  TGI: > 100 µM
[55]
  TGI: > 100 µM

## O=c1[nH]c2ccccc2c(=O)c2cc3ccccc3cc12
[1]
  TGI: 45.5 µM
[2]
  TGI: > 100 µM
[3]
  TGI: 21.9 µM
[4]
  TGI: > 100 µM
[5]
  TGI: > 100 µM
[6]
  TGI: 45.8 µM
[7]
  TGI: > 100 µM
[8]
  TGI: 25.8 µM
[9]
  TGI: 21.4 µM
[10]
  TGI: > 100 µM
[56]
  TGI: > 100 µM
[11]
  TGI: 47.8 µM
[12]
  TGI: > 100 µM
[13]
  TGI: > 100 µM
[14]
  TGI: > 100 µM
[15]
  TGI: > 100 µM
[16]
  TGI: > 100 µM
[17]
  TGI: 37.3 µM
[18]
  TGI: 19.8 µM
[19]
  TGI: 45.2 µM
[20]
  TGI: 37 µM
[21]
  TGI: 19.4 µM
[22]
  TGI: > 100 µM
[23]
  TGI: > 100 µM
[24]
  TGI: > 100 µM
[25]
  TGI: > 100 µM
[26]
  TGI: > 100 µM
[27]
  TGI: > 100 µM
[28]
  TGI: > 100 µM
[58]
  TGI: > 100 µM
[29]
  TGI: 28.2 µM
[30]
  TGI: > 100 µM
[31]
  TGI: 22 µM
[32]
  TGI: 20.3 µM
[33]
  TGI: > 100 µM
[34]
  TGI: > 100 µM
[35]
  TGI: > 100 µM
[36]
  TGI: > 100 µM
[37]
  TGI: 53.6 µM
[57]
  TGI: > 100 µM
[38]
  TGI: 37.7 µM
[39]
  TGI: > 100 µM
[40]
  TGI: 25.9 µM
[41]
  TGI: > 100 µM
[42]
  TGI: 53.9 µM
[43]
  TGI: > 100 µM
[44]
  TGI: > 100 µM
[46]
  TGI: > 100 µM
[47]
  TGI: > 100 µM
[48]
  TGI: > 100 µM
[49]
  TGI: > 100 µM
[50]
  TGI: > 100 µM
[51]
  TGI: 56.3 µM
[52]
  TGI: 70.9 µM
[53]
  TGI: 48.4 µM
[54]
  TGI: > 100 µM
[55]
  TGI: 30.6 µM
